Reference: patent publication US7705001B2, “Therapeutic substituted gamma lactams” (Allergan, Inc, priority 2008, dated 2010)

System: lashes and adjacent hairs of patients
Experiment: Lash and hair growth observed in glaucoma patients treated in one eye
Type: in vivo, human
Conditions: glaucoma patient treated in only one eye
Excerpt: In the course of treating patients having glaucoma, treatment may only be appropriate in one eye. […] The lash appearance on the lids of the treated eyes would have appeared quite attractive if it represented a bilateral phenomenon. As a result of its asymmetric nature, the long lashes on one side could be construed as disturbing from a cosmetic standpoint. A systemic examination was preformed as a result of the asymmetric phenomenon. It soon became apparent that this altered appearance was not an isolated finding. […] Definite differences could be identified to varying degrees in the lashes and adjacent hairs of all patients who were taking the drug on a unilateral basis for longer than 6 months.
The changes in the lashes were apparent on gross inspection in several patients once attention was focused on the issue. In those with light colored hair and lashes, the differences were only seen easily with the aid of the high magnification and lighting capabilities of the slit lamp biomicroscope. In the course of glaucoma follow-up examination, attention is generally immediately focused on the eye itself. As a result of the high power magnification needed only one eye is seen at a time and the eye is seen at a high enough power that the lashes are not in focus. […]

CCNC(=O)CCC/C=C\C[C@@H]1[C@@H](/C=C/[C@@H](O)CCc2ccccc2)[C@H](O)C[C@@H]1O [bimatoprost]
lash appearance in treated eye versus non-treated eye: longer, thicker, and fuller in the treated eye than in the non-treated eye
